Organism: Homo sapiens
Experiment: In vitro for its inhibitory activity against platelet aggregation induced by ADP
Type: functional

Row | IC50 [nM] | Structure (SMILES)
1 | 1200 | N=C(N)c1ccc(C(=O)NCCC(=O)N[C@@H](CC(=O)O)C(=O)N[C@@H](Cc2ccc(O)cc2)C(=O)O)cc1
2 | 47 | N=C(N)c1ccc(C(=O)NCCC(=O)N[C@@H](CC(=O)O)C(=O)NC(Cc2ccc(F)cc2)C(=O)O)cc1 (single isomer, unassigned)
3 | 390 | N=C(N)Nc1ccc(C(=O)NCCC(=O)N[C@@H](CC(=O)O)C(=O)N[C@H](Cc2ccccc2)C(=O)O)cc1
4 | 2900 | N=C(N)Nc1ccc(C(=O)NCCC(=O)N[C@@H](CC(=O)O)C(=O)N[C@@H](C(=O)O)c2ccccc2)cc1
5 | 710 | N=C(N)NCc1ccc(C(=O)NCCC(=O)N[C@@H](CC(=O)O)C(=O)N[C@H](Cc2c[nH]c3ccccc23)C(=O)O)cc1
6 | 320 | N=C(N)Nc1ccc(C(=O)NCCC(=O)N[C@@H](CC(=O)O)C(=O)N[C@H](Cc2ccc3ccccc3c2)C(=O)O)cc1
7 | 1700 | N=C(N)Nc1ccc(C(=O)NCCC(=O)N[C@@H](CC(=O)O)C(=O)N[C@H](Cc2ccc(F)cc2)C(=O)O)cc1
8 | 70 | N=C(N)Nc1ccc(C(=O)NCCC(=O)N[C@@H](CC(=O)O)C(=O)N[C@H](Cc2c[nH]c3ccccc23)C(=O)O)cc1
9 | > 50000 | N=C(N)Nc1ccc(C(=O)NCCCC(=O)N[C@@H](CC(=O)O)C(=O)N[C@H](Cc2c[nH]c3ccccc23)C(=O)O)cc1
10 | 190 | N=C(N)Nc1ccc(C(=O)NCCC(=O)N[C@@H](CC(=O)O)C(=O)N[C@H](Cc2ccc(O)cc2)C(=O)O)cc1
11 | > 50000 | N=C(N)Nc1ccc(C(=O)NC(Cc2ccc(O)cc2)C(=O)N[C@@H](CC(=O)O)C(=O)N[C@H](Cc2c[nH]c3ccccc23)C(=O)O)cc1 (some centres undefined)
12 | 88 | N=C(N)Nc1ccc(C(=O)NCCC(=O)N[C@@H](CC(=O)O)C(=O)N[C@H](CC2CCCCC2)C(=O)O)cc1
13 | > 50000 | N=C(N)c1ccc(C(=O)NCCCC(=O)N[C@@H](CC(=O)O)C(=O)N[C@H](Cc2c[nH]c3ccccc23)C(=O)O)cc1
14 | 44 | N=C(N)c1ccc(C(=O)NCCC(=O)N[C@@H](CC(=O)O)C(=O)N[C@H](Cc2ccc3ccccc3c2)C(=O)O)cc1
15 | 770 | N=C(N)Nc1ccc(C(=O)NCCC(=O)N[C@@H](CC(=O)O)C(=O)N[C@H](Cc2cccc3ccccc23)C(=O)O)cc1
16 | 4600 | N=C(N)Nc1ccc(C(=O)N2CCC(C(=O)N[C@@H](CC(=O)O)C(=O)N[C@H](Cc3c[nH]c4ccccc34)C(=O)O)CC2)cc1
17 | 26 | N=C(N)c1ccc(C(=O)NCCC(=O)N[C@@H](CC(=O)O)C(=O)N[C@H](Cc2c[nH]c3ccccc23)C(=O)O)cc1 (single isomer, unassigned)
18 | 6100 | N=C(N)Nc1ccc(C(=O)NCCC(=O)N[C@@H](CC(=O)O)C(=O)N[C@@H](Cc2ccccc2)C(=O)O)cc1
19 | 600 | N=C(N)Nc1ccc(C(=O)NCC(=O)N[C@@H](CC(=O)O)C(=O)N[C@H](Cc2c[nH]c3ccccc23)C(=O)O)cc1
20 | 20 | N=C(N)c1ccc(C(=O)NCCC(=O)N[C@@H](CC(=O)O)C(=O)NC(Cc2ccc(O)cc2)C(=O)O)cc1 (single isomer, unassigned)

Biological target: Integrin alpha-IIb/beta-3 (Homo sapiens, UniProt P05106+P08514)
Sequence (P05106 27-788 limits assumed): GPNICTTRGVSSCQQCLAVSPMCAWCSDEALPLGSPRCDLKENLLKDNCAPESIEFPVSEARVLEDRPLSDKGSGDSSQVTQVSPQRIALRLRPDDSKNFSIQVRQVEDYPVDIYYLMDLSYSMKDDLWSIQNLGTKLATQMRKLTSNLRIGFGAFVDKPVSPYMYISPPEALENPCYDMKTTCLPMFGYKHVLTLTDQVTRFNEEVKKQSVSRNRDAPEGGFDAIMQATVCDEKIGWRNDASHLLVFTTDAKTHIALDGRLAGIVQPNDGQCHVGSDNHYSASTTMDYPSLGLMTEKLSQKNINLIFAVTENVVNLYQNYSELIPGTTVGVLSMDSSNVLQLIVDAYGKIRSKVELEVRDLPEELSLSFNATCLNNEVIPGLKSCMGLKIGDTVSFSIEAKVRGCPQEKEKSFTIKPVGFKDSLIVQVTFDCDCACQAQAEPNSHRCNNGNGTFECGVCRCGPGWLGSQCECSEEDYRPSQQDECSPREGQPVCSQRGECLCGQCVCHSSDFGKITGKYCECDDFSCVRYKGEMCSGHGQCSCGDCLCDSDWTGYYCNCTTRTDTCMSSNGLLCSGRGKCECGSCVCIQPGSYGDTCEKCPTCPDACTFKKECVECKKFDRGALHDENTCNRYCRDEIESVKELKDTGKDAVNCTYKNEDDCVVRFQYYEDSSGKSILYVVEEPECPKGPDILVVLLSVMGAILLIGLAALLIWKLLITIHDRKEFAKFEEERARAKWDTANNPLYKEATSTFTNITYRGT
Sequence (P08514 32-887 limits assumed): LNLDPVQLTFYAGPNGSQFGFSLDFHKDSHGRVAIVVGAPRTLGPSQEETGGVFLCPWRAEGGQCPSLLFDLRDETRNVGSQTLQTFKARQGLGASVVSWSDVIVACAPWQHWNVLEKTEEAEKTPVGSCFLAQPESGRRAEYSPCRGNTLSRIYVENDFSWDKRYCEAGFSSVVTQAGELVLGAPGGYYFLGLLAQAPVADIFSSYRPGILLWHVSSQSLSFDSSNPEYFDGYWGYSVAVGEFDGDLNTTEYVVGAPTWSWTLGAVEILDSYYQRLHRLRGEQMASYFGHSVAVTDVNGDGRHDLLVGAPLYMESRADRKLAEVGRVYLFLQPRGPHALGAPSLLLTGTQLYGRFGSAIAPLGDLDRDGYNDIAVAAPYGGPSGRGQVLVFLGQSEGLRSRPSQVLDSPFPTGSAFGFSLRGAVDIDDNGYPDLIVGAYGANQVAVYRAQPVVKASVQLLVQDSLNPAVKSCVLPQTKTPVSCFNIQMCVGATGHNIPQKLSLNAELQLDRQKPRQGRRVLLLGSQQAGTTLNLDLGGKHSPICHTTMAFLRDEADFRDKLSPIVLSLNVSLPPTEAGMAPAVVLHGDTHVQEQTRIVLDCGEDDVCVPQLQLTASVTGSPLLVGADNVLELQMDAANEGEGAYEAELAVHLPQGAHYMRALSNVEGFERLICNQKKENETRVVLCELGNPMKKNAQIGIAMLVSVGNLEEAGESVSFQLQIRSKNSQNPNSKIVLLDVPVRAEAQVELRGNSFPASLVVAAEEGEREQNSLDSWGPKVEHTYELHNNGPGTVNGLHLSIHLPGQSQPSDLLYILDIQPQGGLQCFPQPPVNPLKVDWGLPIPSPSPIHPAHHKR
Sequence (P08514 891-1039 limits assumed): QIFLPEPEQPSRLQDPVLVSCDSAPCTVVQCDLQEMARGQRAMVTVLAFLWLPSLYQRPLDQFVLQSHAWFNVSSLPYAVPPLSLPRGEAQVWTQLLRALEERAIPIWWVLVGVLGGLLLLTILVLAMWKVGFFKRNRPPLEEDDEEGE
Experiment: Displacement of [3H]SKF-107260 from alpha IIb beta3 integrin
Type: protein-complex assay

Row | Ki [nM] | Structure (SMILES)
21 | 2.3 | N=C(N)c1ccc(C(=O)NCCC(=O)N[C@@H](CC(=O)O)C(=O)N[C@H](Cc2c[nH]c3ccccc23)C(=O)O)cc1 (single isomer, unassigned)
22 | 2.1 | N=C(N)c1ccc(C(=O)NCCC(=O)N[C@@H](CC(=O)O)C(=O)NC(Cc2ccc(O)cc2)C(=O)O)cc1 (single isomer, unassigned)

Biological target: not listed separately
Experiment: Displacement of [3H]SKF-107260 from […] integrin
Design: species or system Homo sapiens

Row | Ki [nM] | Structure (SMILES)
23 | 35000 | N=C(N)c1ccc(C(=O)NCCC(=O)N[C@@H](CC(=O)O)C(=O)N[C@H](Cc2c[nH]c3ccccc23)C(=O)O)cc1 (single isomer, unassigned)
24 | 75000 | N=C(N)c1ccc(C(=O)NCCC(=O)N[C@@H](CC(=O)O)C(=O)NC(Cc2ccc(O)cc2)C(=O)O)cc1 (single isomer, unassigned)

From ChEMBL document CHEMBL1151085, “Design, synthesis and SAR of RGD peptide hybrids as highly efficient inhibitors of platelet aggregation” (Bioorg Med Chem Lett, 1995)
